Data on two compounds can be found in US5373040A, “Amorphous solid modification of 2,2',2"-nitrilo[triethyl-tris-(3,3',5,5'-tetra-tert-butyl-1,1'-biphenyl- 2,2'-diyl)phosphite]” (Ciba-Geigy Corporation, priority 1993, dated 1994).

The structures appear in SMILES notation.

Series [1] in a line: Process stabilization of polypropylene: yellowness index of plaques (ASTM D1925). To be noted: 0.075% by weight of each additive, 0.075% calcium stearate. The text has this: (§1) The test additives are incorporated into the polypropylene by dry blending or, when the additive is a liquid, using a minimum amount of methylene chloride solvent. The solvent is then removed by evaporation under reduced pressure.

A short description of series [2]: Process stabilization of polypropylene at 525° F.: melt flow rate (ASTM D1238). The conditions noted are these: 0.075% by weight of each additive, 0.075% calcium stearate, 525° F. The method, then: as §1
After each of the first, third and fifth extrusions, the melt flow rate (in grams/10 minutes) is determined by ASTM method D1238 on the pellets obtained from the extruder.

Series [3] in a line: Solubility in lubricating oil (Mobil BB oil). The format is physicochemical. The conditions noted are these: 1% by weight in Mobil BB oil (Exp. 4f), at 60° C. per footnote.
Series [4] is described as follows: Solubility in lubricating oil (Mobil BB oil). The series is classed as physicochemical. The method, then:
The following experiments are performed to determine the solubility of amorphous compound A and crystalline compound B in Mobil BB oil. Both compounds have the same uniform particle sizes (40-70 micron).
Compound A=amorphous form of 2,2',2"-nitrilo-[triethyl-tris-(3,3',5,5'-tetra-tert-butyl-1,1'-biphenyl-2,2'-diyl) phosphite], prepared in accordance with instant Example 1.
Compound B=crystalline form of 2,2',2"-nitrilo[triethyl-tris-(3,3',5,5'-tetra-tert-butyl-1,1'-biphenyl-2,2'-diyl) phosphite], prepared in accordance with Example 4 of U.S. Pat. No. 4,318,845.
Into a vial of 980 mg. of Mobil BB oil is added 20 mg. of compound A at ambient temperature. For the first 30 minutes, the vial is shaken every 10 minutes. After the initial 30 minutes, the vial is left standing.
Into a vial of 980 mg. of Mobil BB oil is added 20 mg. of compound B at ambient temperature. For the first 30 minutes, the vial is shaken every 10 minutes. After the initial 30 minutes, the vial is left standing.
Into a vial of 980 mg. of Mobil BB oil is added 20 mg. of compound A at ambient temperature. The vial is then placed into a 60° C. oil bath.
Into a vial of 980 mg. of Mobil BB oil is added 20 mg. of compound B at ambient temperature. The vial is then placed into a 60° C. oil bath.
Into a vial of 990 mg. of Mobil BB oil is added 10 mg. of compound A at ambient temperature. […] is shaken every 10 minutes. After the initial 30 minutes, the vial is left standing.
Into a vial of 990 mg. of Mobil BB oil is added 10 mg. of compound B at ambient temperature. […] is shaken every 10 minutes. After the initial 30 minutes, the vial is left standing.

Series [5] in a line: Solubility in LLDPE film by diffusion-in, X-ray fluorescence. The series is classed as physicochemical. The method, then: Experiments are carried out to determine the solubility of the instant compound into linear low density polyethylene (LLDPE) films at 20° C., 40° C. and 60° C. by diffusion-in of a relatively homogeneous particle size (<70 microns) of the test sample suspended in silicon oil.
Each sample is carefully ground with a mortar and pestle and the particle size below 70 microns is separated by sieving with a 200 mesh screen. The powder is then suspended in silicon oil (polydimethylsiloxane, L-45, Union Carbide Chemicals) at a concentration of approximately 38% (wt/wt). A few drops of this suspension is placed on a 10 mil (0.254 mm) thick, 2"×2" (5.08 cm×5.08 cm) compression molded film and a second film of the same dimension is placed on top. The films are gently pressed together so that the suspension forms a thin liquid layer between the polymer films. Excess suspension is removed and the procedure is repeated till a stack of eight films (six films for evaluation) are prepared. The stack is then placed between two 2.5"×2.5" (6.35 cm×6.35 cm) ceramic tiles and wrapped in aluminum foil and held together with a G-clamp. Each stack is aged at 20° C., 40° C. and 60° C. under a nitrogen atmosphere. At specified intervals, a single film is removed from the stack and the excess suspension is washed from the film with hexane. The film is then analyzed by X-ray fluorescence for total phosphorus content. LLDPE containing 0, 1000 ppm and 2000 ppm of the test compound are used as standard controls for this X-ray fluorescence method.

A short description of series [6]: Apparent bulk density (ASTM D-1895). The series is classed as physicochemical. On the procedure:
The apparent bulk density of the solids is measured according to the method of ASTM D-1895 (79). A higher apparent bulk density allows for a greater mass per unit volume which affords advantages in packaging of the solid product, such as lower costs for the packaging material, less storage space is required, etc.

As to `CC(C)(C)c1cc(CCC(=O)OCC(COC(=O)CCc2cc(C(C)(C)C)c(O)c(C(C)(C)C)c2)(COC(=O)CCc2cc(C(C)(C)C)c(O)c(C(C)(C)C)c2)COC(=O)CCc2cc(C(C)(C)C)c(O)c(C(C)(C)C)c2)cc(C(C)(C)C)c1O` [Base, neopentanetetrayl tetrakis(3,5di-tert-butyl-4-hydroxyhydrocinnamate)], the “Yellowness Index (YI) Values after Extrusion 5” value in series [1] (after fifth extrusion) stood at 11.0. In addition, the “Yellowness Index (YI) Values after Extrusion 1” value in series [1] (after first extrusion) was found to be 7.6. The “Yellowness Index (YI) Values after Extrusion 3” value in series [1] (after third extrusion) came to 9.0. Besides, the “Melt Flow after Extrusion 5” value in series [2] (after fifth extrusion) stood at 17.5 grams/10 minutes. Further, the “Melt Flow after Extrusion 1” value in series [2] (after first extrusion) was 8.1 grams/10 minutes. Besides, the “Melt Flow after Extrusion 3” value in series [2] (after third extrusion) is on record as 12.9 grams/10 minutes.

Consider `CC(C)(C)c1cc(C(C)(C)C)c2op(OCCN(CCOp3oc4c(C(C)(C)C)cc(C(C)(C)C)cc4c4cc(C(C)(C)C)cc(C(C)(C)C)c4o3)CCOp3oc4c(C(C)(C)C)cc(C(C)(C)C)cc4c4cc(C(C)(C)C)cc(C(C)(C)C)c4o3)oc3c(C(C)(C)C)cc(C(C)(C)C)cc3c2c1` [Example 4 of U.S. 4,318,845, 2,2',2"-nitrilo[triethyl-tris-(3,3',5,5'-tetra-tert-butyl-1,1'-biphenyl-2,2'-diyl)phosphite], reference compound], for which the “Time to clear solution” value in series [3] was 5 h; in series [4] (1% by weight in Mobil BB oil, RT, listed as compound B) it was 16 h; in series [4] (2% by weight in Mobil BB oil, 60° C. oil bath, listed as B) it was 5 h; in series [4] (2% by weight in Mobil BB oil, 60° C. oil bath, listed as compound B), 16 h; in series [4] (2% by weight in Mobil BB oil, RT, listed as B), 16 h; in series [4] (2% by weight in Mobil BB oil, RT, listed as compound B), 16 h. In addition, the Observation result is given as “Cloudy” in series [4] (1% by weight in Mobil BB oil, RT, 1.5 hrs., listed as B); “cloudy suspension” in series [4] (1% by weight in Mobil BB oil, RT, 1.5 hrs., listed as compound B); “Cloudy” in series [4] (2% by weight in Mobil BB oil, 60° C. oil bath, 10 min., listed as B); “cloudy suspension” in series [4] (2% by weight in Mobil BB oil, 60° C. oil bath, 10 min., listed as compound B); “Cloudy” in series [4] (2% by weight in Mobil BB oil, RT, 2.5 hrs., listed as B); “cloudy suspension” in series [4] (2% by weight in Mobil BB oil, RT, 2.5 hrs., listed as compound B). Besides, the “Solubility of Compound in LLDPE at 20° C.” value in series [5] (interval 15 (time unit not given)) is 1500 ppm; in series [5] (interval 28 (time unit not given)) it was 1000 ppm; in series [5] (interval 35 (time unit not given)), 1200 ppm; in series [5] (interval 44 (time unit not given)), 1200 ppm; in series [5] (third section, interval 6 (time unit not given)), 1000 ppm; in series [5] (third section, interval 14 (time unit not given)), 800 ppm. In addition, the “Solubility of Compound in LLDPE at 20° C.” value in series [5] (third section, interval 22 (time unit not given)) turned out to be 1000 ppm; in series [5] (third section, interval 28 (time unit not given)), 900 ppm; in series [5] (third section, interval 37 (time unit not given)), 900 ppm. The “Solubility of Compound in LLDPE at 40° C.” value in series [5] (interval 10 (time unit not given)) worked out at 500 ppm; in series [5] (interval 17 (time unit not given)) it was 1750 ppm; in series [5] (interval 25 (time unit not given)) it was 750 ppm; in series [5] (interval 34 (time unit not given)) it was 400 ppm; in series [5] (interval 40 (time unit not given)), 600 ppm; in series [5] (interval 47 (time unit not given)) it was 1400 ppm. Also, the “Bulk Density” value in series [6] is 0.44 g/mL.
